The values that follow come from article PMC3319004 (Science Translational Medicine, 2011).

One assay has as its system R1275Q xenografts. Briefly: In vivo activity of GSK1838705A in xenografts.
The next assay deals with NBSD (F1174L) xenografts. Nature of the assay: In vivo tumor growth inhibition, NBSD xenografts. Set-up: species or system CB17 scid mice.
Assay [1] relates to SH-SY5Y (F1174L) xenografts.
Assay [2] concerns NB1643 (R1275Q) xenografts. Nature of the assay: In vivo tumor growth inhibition, NB1643 xenografts. Set-up: species or system CB17 scid mice.
For another assay, the target named is F1174L ALK-TKD (Homo sapiens, UniProt Q9UM73, F1174L).
[3] abbreviates: 100mg/kg/day oral gavage for 4 weeks.

In the case of `CNC(=O)c1c(F)cccc1Nc1nc(Nc2cc3c(cc2OC)CCN3C(=O)CN(C)C)nc2[nH]ccc12` [GSK1838705A], the “in vivo activity in xenografts” value in the assay on R1275Q xenografts is on record as “only showed significant in vivo activity against R1275Q xenografts”.

Consider `C[C@@H](Oc1cc(-c2cnn(C3CCNCC3)c2)cnc1N)c1c(Cl)ccc(F)c1Cl` [crizotinib], for which, in the assay with NBSD (F1174L) xenografts (100mg/kg/day oral gavage for 4 weeks, p = 0.29), the tumor volume entry was “failed to reduce tumor volume”. For the same molecule, the “extension of time to reach the study endpoint” value in the assay on NBSD (F1174L) xenografts (100mg/kg/day, mean, p = 0.04) is given as 3.7 days. For the same molecule, the tumor regression entry in assay [1] (setting [3]) was “No tumor regression was observed”. Further, in assay [1] (100mg/kg/day, average, p < 0.0001), the “extension of time taken to reach the study endpoint (tumor volume ≥ 1.5 cm^3)” value was found to be 7.7 days. Also, in assay [2] (setting [3]), the tumor response result was “tumor regression within three weeks”. In assay [2] (100mg/kg/day oral gavage, p < 0.0001), the “tumor response over the fourth week of dosing” value is listed as “complete regression was sustained”.

Turning to `CN[C@@H]1C[C@H]2O[C@@](C)([C@@H]1OC)n1c3ccccc3c3c4c(c5c6ccccc6n2c5c31)C(=O)NC4` [staurosporine], the “in vitro inhibition of ALK-TKD, F1174L compared with R1275Q-mutated ALK-TKD” value on F1174L ALK-TKD is reported as “impaired by the F1174L mutation”.
